According to paper PMC6883804, “Cathelicidin Contributes to the Restriction of Leishmania in Human Host Macrophages” (Frontiers in Immunology, 2019):

Tests used:
[1] = test system: CAMP; assay: CAMP gene expression in hMDM1 by qRT-PCR after vitamin D derivatives; assay type: cell-based, human; conditions: hMDM1, 100 nM, after 6 days (late), qRT-PCR normalized to GAPDH and to untreated control = 1, mean ± SD, n = 1-5
Experimental: Human peripheral mononuclear cells (PBMCs) were isolated from buffy coats (DRK-Blutspendedienst Hessen GmbH) by passage over a Leukocyte Separation Medium gradient as described previously ([30]). Monocytes, obtained by plastic adherence or CD14 selection were incubated either with 10 ng/ml rhGM-CSF (Leukine® Sanofi-Aventis, Bridgewater, US) or 30 ng/ml rhM-CSF (R&D Systems, Abingdon, UK) for a period of 5 to 7 d at 37°C, 5% CO2 to generate hMDM1 or hMDM2, respectively. Cells were generated in 6 w plates or in 25 cm^2 culture flasks and were detached by cooling cells down on ice, following detachment with a cell scraper. […]
The cells were co-incubated with stationary phase Lm or Lae promastigotes or axenic amastigotes at a MOI ratio of 1:10 in RPMI 1640 supplemented with 10% heat inactivated fetal calf serum, 50 μM β-mercaptoethanol (all from Sigma Aldrich), 2 mM L-glutamine, 100 U/ml penicillin and 100 μg/ml streptomycin, 10 mM HEPES (all from Biochrom) for 3 h at 37°C in a humidified atmosphere in a CO2 incubator. […] The LmdsRed promastigotes increase their fluorescence intensity when transforming into amastigotes, which enables the quantification of the parasite propagation by measuring the dsRed mean fluorescence intensity using FACS ([62], [63]). […]

[2] = test system: cathelicidin; assay: Cathelicidin protein expression in hMDM1 by western blot densitometry; assay type: cell-based, human; conditions: hMDM1, 100 nM, western blot densitometry normalized to ß-actin and untreated control = 1, mean ± SD, n = 5-7
Experimental: Human peripheral mononuclear cells (PBMCs) were isolated from buffy coats (DRK-Blutspendedienst Hessen GmbH) by passage over a Leukocyte Separation Medium gradient as described previously ([30]). Monocytes, obtained by plastic adherence or CD14 selection were incubated either with 10 ng/ml rhGM-CSF (Leukine® Sanofi-Aventis, Bridgewater, US) or 30 ng/ml rhM-CSF (R&D Systems, Abingdon, UK) for a period of 5 to 7 d at 37°C, 5% CO2 to generate hMDM1 or hMDM2, respectively. Cells were generated in 6 w plates or in 25 cm^2 culture flasks and were detached by cooling cells down on ice, following detachment with a cell scraper. Experimental data, conducted with monocytes obtained from human donors, are depicted as dot plots, in which each dot presents data from a single donor.
(§1) The cells were co-incubated with stationary phase Lm or Lae promastigotes or axenic amastigotes at a MOI ratio of 1:10 in RPMI 1640 supplemented with 10% heat inactivated fetal calf serum, 50 μM β-mercaptoethanol (all from Sigma Aldrich), 2 mM L-glutamine, 100 U/ml penicillin and 100 μg/ml streptomycin, 10 mM HEPES (all from Biochrom) for 3 h at 37°C in a humidified atmosphere in a CO2 incubator. Extracellular parasites were removed by centrifugation and washing the cells. During infection experiments, cathelicidin expression was induced by incubation of hMDM with 100 nM calcitriol or calcipotriol for 24 h. […] The LmdsRed promastigotes increase their fluorescence intensity when transforming into amastigotes, which enables the quantification of the parasite propagation by measuring the dsRed mean fluorescence intensity using FACS ([62], [63]).
A total number of 0.5 × 10^6 hMDM were lysed in Lämmli-Buffer (A. bidest supplemented with 0.7 M Glycerol, 1.7% SDS, 0.1 M DTT and 30 μM Bromphenol blue), denaturated at 95°C for 10 min and loaded onto a 15% SDS-polyacrylamide gel. […] The membrane was washed once more and the protein bands were detected using an ECL substrate (GE Healthcare, Buckinghamshire, United Kingdom). Using ImageJ, densitometry analysis was performed to quantify the intensities of the protein bands.

[3] = test system: L. major dsRed in hMDM1; assay: Parasite survival (dsRed MFI) in infected hMDM1 by flow cytometry; assay type: cell-based, Leishmania major; conditions: hMDM1 pretreated 24 h with 100 nM, infected with Lm dsRed MOI 10, flow cytometry, mean ± SD; control 1.00 ± 0.46
Experimental: as §1, with “h. For transgenic LmdsRed flow cytometry was used to analyze infection rates.” for “h.”
(§2) • FACS analysis of Leishmania parasites was performed as described Wenzel et al. ([61]). […] The cells were washed in FACS-Buffer and analyzed by flow cytometry. • To assess parasite survival, Leishmania (dsRed^+) infected hMDM were washed in FACS-buffer and infection rate (% of dsRed^+ hMDM) and the parasite load (mean fluorescent intensity) were assessed by flow cytometry. […] Data were analyzed by BD FACS Diva or FlowJo software (Treestar).

[4] = test system: L. major dsRed in hMDM1; assay: Infection rate (% dsRed+ hMDM1) by flow cytometry; assay type: cell-based, Leishmania major; conditions: hMDM1 pretreated 24 h with 100 nM, infected with Lm dsRed MOI 10, flow cytometry
Experimental: as §1, with “h. For transgenic LmdsRed flow cytometry was used to analyze infection rates.” for “h.”
as §2

[5] = test system: L. aethiopica (Lae); assay: DNA fragmentation (TUNEL) by flow cytometry, L. aethiopica; assay type: cell-based, Leishmania aethiopica
Experimental: (§3) L. major (Lm, MHOM_IL_81_FEBNI), L. aethiopica (Lae, MHOM/ET/72/L100 Z14), and the transgenic Lm dsRed (construct pSSUint-DsRed was a kind gift from Dr. Toni Aebischer, Robert Koch Institute, Berlin, Germany) and Lae dsRed promastigotes were cultured at 27°C in biphasic Novy-Nicolle-McNeal blood agar medium as described ([60]). Of note, all viable promastigotes express the transgenic dsRed protein. Upon transformation into the amastigote life stage, a 1 log-scale higher dsRed fluorescence is present, due to the high-level expression in the amastigote life stage ([31]). Logarithmic-phase or stationary-phase promastigotes were obtained after 2 (log-phase) or 7 (stat-phase) days of culture, respectively. Lm and Lae axenic amastigotes were generated by incubating log-phase promastigotes in pH 5.5 at 33°C and isolated using a discontinuous Histopaque® 1119 (Sigma Aldrich, Germany) density gradient as described ([61]).
(§4) To assess apoptosis, Lm and Lae promastigotes, which resided in a logarithmic growth phase, were treated with 30 and 60 ng/ml hrLL37 (PeptaNova GmbH, Sandhausen, Germany) for 72 h. […] Subsequently, DNA fragmentation was assessed by flow cytometry or immunofluorescence imaging using an in situ cell-death detection kit, based on terminal deoxynucleotidyl transferase dUTP nick end labeling (TUNEL), as described ([30]). Exposure of phosphatidylserine (PS) was assessed by AnnexinA5 binding using flow cytometry.
(§5) • FACS analysis of Leishmania parasites was performed as described Wenzel et al. ([61]). Apoptosis, among parasites, was assessed by staining with AnnexinA5-Alexa Fluor 647 using a Ca^2+ rich buffer. • For phenotyping hMDM by flow cytometry, hMDM were washed in FACS-Buffer (PBS supplemented with 1% FCS, 1% human serum and 1% BSA) and incubated with anti-CD14-FITC (1:100, IgG2b), anti-CD163-PE (1:50, IgG1, GHI/61), or anti-MHC II-PerCP (1:100, IgG2a, L243) for 30 min on ice in the dark. […] Upon analyzing, at least 10,000 events (human cells) or 20,000 (parasites) were recorded using a BD LSR II flow cytometer (BD Bioscience, Heidelberg, Germany). […]

[6] = test system: Leishmania major (Lm); assay: DNA fragmentation (TUNEL) by flow cytometry, L. major; assay type: cell-based; conditions: mean ± SD
Experimental: as §3, §4, §5

[7] = test system: L. aethiopica (Lae); assay: Phosphatidylserine exposure (AnnexinA5 binding) by flow cytometry, L. aethiopica; assay type: cell-based, Leishmania aethiopica; conditions: mean ± SD; for AnnexinA5-binding parasites: Lae log-phase promastigotes, 72 h, untreated 8.0 ± 4.5%
Experimental: as §3, §4, §5

[8] = test system: Leishmania major (Lm); assay: Phosphatidylserine exposure (AnnexinA5 binding) by flow cytometry, L. major; assay type: cell-based; conditions: mean ± SD; for AnnexinA5-binding parasites: Lm log-phase promastigotes, 72 h, untreated 14.7 ± 11.1%
Experimental: as §3, §4, §5

[9] = test system: Leishmania promastigotes; assay: Parasite morphology by microscopy after hrLL37 treatment; assay type: cell-based; conditions: microscopy (Figure 2C), as described for apoptotic parasites
Experimental: To assess apoptosis, Lm and Lae promastigotes, which resided in a logarithmic growth phase, were treated with 30 and 60 ng/ml hrLL37 (PeptaNova GmbH, Sandhausen, Germany) for 72 h. Leishmania axenic amastigotes were treated with 10 and 100 ng/ml hrLL37 or 25 μM staurosporine for 24 h. Subsequently, DNA fragmentation was assessed by flow cytometry or immunofluorescence imaging using an in situ cell-death detection kit, based on terminal deoxynucleotidyl transferase dUTP nick end labeling (TUNEL), as described ([30]). Exposure of phosphatidylserine (PS) was assessed by AnnexinA5 binding using flow cytometry.

[10] = higher of two hrLL37 concentrations (60 ng/ml per methods)
[11] = lower of two hrLL37 concentrations (30 ng/ml per methods)

Q: Which results are given for `C=C1/C(=C\C=C2/CCC[C@]3(C)[C@@H]([C@H](C)/C=C/[C@@H](O)C4CC4)CC[C@@H]23)C[C@@H](O)C[C@@H]1O` [CPT, calcipotriol]?
A: CAMP gene expression, fold increase [1]: 282 fold; cathelicidin protein expression, fold increase ([2]; late (6 d)): 101.9 ± 125.4 fold; L. major parasite survival (mean fluorescent intensity of dsRed, relative to control) [3]: 0.74 ± 0.23; percentage of hMDM1 infected cells (infection rate) [4]: did not change significantly

Q: With “hrLL37: human recombinant LL37 (PeptaNova GmbH), the hCAP18-derived amphipathic α-helical antimicrobial peptide” as the compound, how does the TUNEL positivity ([5]; Lae axenic amastigotes, hrLL37 (10 and 100 ng/ml in methods, concentration of this value not stated), 24 h, mean ± SD, untreated 32.3 ± 13.3%) read?
A: Its TUNEL positivity is 87.0 ± 6.1%.

Q: What about the TUNEL positivity ([5]; Lae log-phase promastigotes, higher of two increasing hrLL37 concentrations (60 ng/ml per methods), 72 h, mean ± SD of at least 3 experiments, untreated 13.3 ± 1.2%) of the same compound?
A: The TUNEL positivity was 21.1 ± 2.3%.

Q: And the TUNEL positivity ([5]; Lae log-phase promastigotes, lower of two increasing hrLL37 concentrations (30 ng/ml per methods), 72 h, mean ± SD of at least 3 experiments, untreated 13.3 ± 1.2%)?
A: Its TUNEL positivity is 15.5 ± 8.3%.

Q: What about the TUNEL positivity ([6]; Lm axenic amastigotes, rhLL37 (10 and 100 ng/ml in methods, concentration of this value not stated), 24 h, not significantly increased, untreated 12.0 ± 6.6%) of the same compound?
A: The TUNEL positivity was 12.1 ± 2.1%.

Q: What about the TUNEL positivity ([6]; Lm log-phase promastigotes, higher of two increasing hrLL37 concentrations (60 ng/ml per methods), 72 h, untreated 6.24 ± 1.9%) of the same compound?
A: The TUNEL positivity was 22.9 ± 3.1%.

Q: And the TUNEL positivity ([6]; Lm log-phase promastigotes, lower of two increasing hrLL37 concentrations (30 ng/ml per methods), 72 h, untreated 6.24 ± 1.9%)?
A: Its TUNEL positivity is 20.2 ± 0.7%.

Q: And the AnnexinA5 binding ([7]; Lae axenic amastigotes, hrLL37 (10 and 100 ng/ml in methods, concentration of this value not stated), 24 h, untreated 18.7 ± 6.1%)?
A: Its AnnexinA5 binding is 71.3 ± 12.6%.

Q: And the AnnexinA5-binding parasites [7, 10]?
A: Its AnnexinA5-binding parasites is 31.3 ± 26%.

Q: What about the AnnexinA5-binding parasites [7, 11] of the same compound?
A: The AnnexinA5-binding parasites was 27.1 ± 14.3%.

Q: What about the AnnexinA5 binding ([8]; Lm axenic amastigotes, rhLL37 (10 and 100 ng/ml in methods, concentration of this value not stated), 24 h, minor but significant increase, untreated 3.3 ± 2.3%) of the same compound?
A: The AnnexinA5 binding was 8.3 ± 3.0%.

Q: And the AnnexinA5-binding parasites [8, 10]?
A: The AnnexinA5-binding parasites was 74.8 ± 23.2%.

Q: What about the AnnexinA5-binding parasites [8, 11] of the same compound?
A: The AnnexinA5-binding parasites was 51.5 ± 20.5%.

Q: What about the “Morphology of treated parasites” value [9] of the same compound?
A: The value was “round-shaped morphology”.

Q: With `C=C1/C(=C\C=C2/CCC[C@]3(C)[C@@H]([C@H](C)CCCC(C)(C)O)CC[C@@H]23)C[C@@H](O)C[C@@H]1O` [CCT, 1α, 25-dihydroxyvitamin D3] as the compound, how does the “CAMP gene expression, fold increase” value [1] read?
A: The value was 587 ± 173 fold.

Q: And the “cathelicidin protein expression, fold increase” value ([2]; early (24 h))?
A: Its value is 25.5 ± 22.2 fold.

Q: And the “cathelicidin protein expression, fold increase” value ([2]; late (6 d))?
A: Its value is 152.5 ± 149.6 fold.

Q: And the “L. major parasite survival (mean fluorescent intensity of dsRed, relative to control)” value [3]?
A: The value was 0.60 ± 0.25.

Q: And the “percentage of hMDM1 infected cells (infection rate)” value [4]?
A: The value was “did not change significantly”.
